Measurements published in patent US20230416653A1, “ANTIMICROBIAL CLEANING COMPOSITIONS CONTAINING POLYURETHANE SALTED WITH BIS-BIGUANIDE FREE BASE” (Lubrizol Advanced Materials, Inc., priority 2020, published 2023).

System: Aspergillus brasiliensis
Assay: Antimicrobial activity on ceramic tiles, visual evaluation of fungal growth
Format: cell-based
Conditions: 10 = full fungal growth coverage, 0 = complete absence of fungal growth; tiles rinsed with 0.1 wt. % SLS; incubated 7 days at 25° C.
Procedure: A 2 wt. % aqueous dispersion of Polymer 1 salted with 2 wt. % chlorhexidine free base was assayed for antimicrobial activity on ceramic tiles. Control formulations containing Polymer 2 (no acid groups) 2 wt. % aqueous dispersion combined with 2 wt. % chlorhexidine gluconate, chlorhexidine (1 wt. % active material in sterilized deionized water) and benzalkonium chloride (1 wt. % active material in sterilized deionized water) were prepared for comparison. The tiles (Homebase Gloss Mini-Metro wall tiles measuring 7.5 cm×15 cm×0.6 cm thick) were sprayed with the dispersion of the salted Polymer 1 and the control formulations. The treated tiles were dried overnight in a biological control cabinet (Nuaire model no. NU 4005) at 20° C. and 45% RH. The dried tiles were removed from the biological control cabinet and each tile was rinsed with 400 ml of a sterile solution of 0.1 wt. % sodium laurel sulfate in deionized water. A spore suspension of Aspergillus brasiliensis cultured on malt extract agar was prepared in sterilized deionized water (concentration: 1×10^8 cfu/ml) and applied to each tile with a handheld spray bottle (nozzle set on spray position). The treated tiles were placed in the biological cabinet at 20° C. and 45% RH and dried for 30 mins. […] After incubating for 7 days the tiles were removed and visually evaluated for fugal growth.

| Molecule | Fungal Coverage Rating (average of 10 treated tiles) |
| --- | --- |
| benzalkonium chloride [Control (benzalkonium chloride)] | 6 |
| N=C(NCCCCCCNC(=N)NC(=N)Nc1ccc(Cl)cc1)NC(=N)Nc1ccc(Cl)cc1 [Control (chlorhexidine), chlorhexidine] | 5 |
